The subject of this assay is male CD1 mice. The assay is described as follows: In vivo predictive sedation-hypnosis test (traveled distance). The following applies: Mus musculus, ip, 0.5 h, traveled distance over 30 min versus control, read-out: % inhib motor activity; for inhibition in vivo at 0.98 µmol/kg: 0.98 μmol/kg intraperitoneal; for inhibition in vivo at 98 µmol/kg: 98.0 μmol/kg intraperitoneal. On the procedure: b) In Vivo Determination of Predictive Sedative-hypnotic Action
The in vivo effects of these compounds were assessed by a predictive sedation-hypnosis test in mice (D. J. Sanger et al., Eur. J. Pharmacol., 313, 35-42, 1996; and G. Griebel et al., Psychopharmacology, 146, 205-213, 1999).
Groups of 5-8 male CD1 mice, weighing 22-26 g at the time of test, were used. […] Compounds were suspended in 0.25% agar with one drop of Tween in a volume of 10 mL/kg. Control animals were given the vehicle alone. Using a Smart System (Panlab, S. L., Spain) the traveled distance in cm is recorded for each mouse at 5-minutes intervals during a period of 30 minutes after dosing. The inhibition percentage of traveled distance of treated animals versus control animals (the first 5 minutes were discarded) was calculated.

Consider `CCN(CC)C(=O)Cc1c(-c2ccc(C)cc2)nc2ccc(Cl)nn12` [Example 1, 2-(6-Chloro-2-p-tolyl-imidazo[1,2-b]pyridazin-3-yl)-N,N-diethyl-acetamide], for which the inhibition in vivo at 0.98 µmol/kg is 27.6% and the inhibition in vivo at 98 µmol/kg was 94.7%.

For the molecule `Cc1ccc(-c2nc3ccc(Cl)nn3c2CC(=O)N2CCCCC2)cc1` [Example 4, 2-(6-Chloro-2-p-tolyl-imidazo[1,2-b]pyridazin-3-yl)-1-piperidin-1-yl-ethanone], the inhibition in vivo at 0.98 µmol/kg is 38.4% and the inhibition in vivo at 98 µmol/kg is 94.7%. Regarding `Cc1ccc(-c2nc3ccc(Cl)nn3c2CC(=O)N2CCOCC2)cc1` [Example 5, 2-(6-Chloro-2-p-tolyl-imidazo[1,2-b]pyridazin-3-yl)-1-morpholin-4-yl-ethanone], the inhibition in vivo at 0.98 µmol/kg was 41.1% and the inhibition in vivo at 98 µmol/kg is 93.7%.

With `Cc1ccc(-c2nc3ccc(Cl)nn3c2CC(=O)N2CCCC2)cc1` [Example 6, 2-(6-Chloro-2-p-tolyl-imidazo[1,2-b]pyridazin-3-yl)-1-pyrrolidin-1-yl-ethanone], the inhibition in vivo at 0.98 µmol/kg was 51.9% and the inhibition in vivo at 98 µmol/kg is 96.9%.

`CCOc1ccc2nc(-c3ccc(Br)cc3)c(CC(=O)N3CCOCC3)n2n1` [Example 9, 2-[2-(4-Bromo-phenyl)-6-ethoxy-imidazo[1,2-b]pyridazin-3-yl]-1-morpholin-4-yl-ethanone]: the inhibition in vivo at 0.98 µmol/kg is 19.9% and the inhibition in vivo at 98 µmol/kg is 93.8%. Take `CCOc1ccc2nc(-c3ccc(Br)cc3)c(CC(=O)N3CCCCC3)n2n1` [Example 10, 2-[2-(4-Bromo-phenyl)-6-ethoxy-imidazo[1,2-b]pyridazin-3-yl]-1-piperidin-1-yl-ethanone]: the inhibition in vivo at 0.98 µmol/kg is 29.5% and the inhibition in vivo at 98 µmol/kg was 93.5%. Turning to `CCCCN(CCCC)C(=O)Cc1c(-c2ccc(Br)cc2)nc2ccc(OCC)nn12` [Example 11, 2-[2-(4-Bromo-phenyl)-6-ethoxy-imidazo[1,2-b]pyridazin-3-yl]-N,N-dibutyl-acetamide], the inhibition in vivo at 0.98 µmol/kg was 15.3% and the inhibition in vivo at 98 µmol/kg was 79.8%.

Take `CCCN(CCC)C(=O)Cc1c(-c2ccc(Br)cc2)nc2ccc(OCC)nn12` [Example 12, 2-[2-(4-Bromo-phenyl)-6-ethoxy-imidazo[1,2-b]pyridazin-3-yl]-N,N-dipropyl-acetamide]: the inhibition in vivo at 0.98 µmol/kg was 15.1% and the inhibition in vivo at 98 µmol/kg is 83.4%.

With `CCOc1ccc2nc(-c3ccc(Br)cc3)c(CC(=O)N(CC)CC)n2n1` [Example 13, 2-[2-(4-Bromo-phenyl)-6-ethoxy-imidazo[1,2-b]pyridazin-3-yl]-N,N-diethyl-acetamide], the inhibition in vivo at 0.98 µmol/kg was 15.1% and the inhibition in vivo at 98 µmol/kg was 92.1%.

In the case of `Cc1ccc2nc(-c3ccc(Br)cc3)c(CC(=O)N3CCOCC3)n2n1` [Example 14, 2-[2-(4-Bromo-phenyl)-6-methyl-imidazo[1,2-b]pyridazin-3-yl]-1-morpholin-4-yl-ethanone], the inhibition in vivo at 0.98 µmol/kg is 4.77% and the inhibition in vivo at 98 µmol/kg is 95.6%. With `CCCN(CCC)C(=O)Cc1c(-c2ccc(Br)cc2)nc2ccc(C)nn12` [Example 17, 2-[2-(4-Bromo-phenyl)-6-methyl-imidazo[1,2-b]pyridazin-3-yl]-N,N-dipropyl-acetamide], the inhibition in vivo at 0.98 µmol/kg was 9.91% and the inhibition in vivo at 98 µmol/kg was 93.1%. Consider `CCOc1ccc2nc(-c3ccc(Cl)cc3)c(CC(=O)N(CC)CC)n2n1` [Example 20, 2-[2-(4-Chloro-phenyl)-6-ethoxy-imidazo[1,2-b]pyridazin-3-yl]-N,N-diethyl-acetamide], for which the inhibition in vivo at 98 µmol/kg is 91.5%. `CCCCN(CCCC)C(=O)Cc1c(-c2ccc(Cl)cc2)nc2ccc(C)nn12` [Example 22, N,N-Dibutyl-2-[2-(4-chloro-phenyl)-6-methyl-imidazo[1,2-b]pyridazin-3-yl]-acetamide]: the inhibition in vivo at 0.98 µmol/kg was 22.2% and the inhibition in vivo at 98 µmol/kg is 88%.
